Data from patent publication US11253525B2, “Inhibitors of indoleamine 2,3-dioxygenase and methods of their use” (BRISTOL-MYERS SQUIBB COMPANY, priority 2018, dated 2022).
Where two headings read alike, the source gives them in different places.

Key:
human IDO1 = target: T1, human IDO1 (Homo sapiens, UniProt P14902); experiment: HEK293 cell-based indoleamine 2,3-dioxygenase (IDO) assay; details: human IDO1/HEK293 cells, 20 hours; read-out: IDO1 HEK Human IC50
T1 construct: expressed in transfected cells
T1 sequence (P14902 whole entry): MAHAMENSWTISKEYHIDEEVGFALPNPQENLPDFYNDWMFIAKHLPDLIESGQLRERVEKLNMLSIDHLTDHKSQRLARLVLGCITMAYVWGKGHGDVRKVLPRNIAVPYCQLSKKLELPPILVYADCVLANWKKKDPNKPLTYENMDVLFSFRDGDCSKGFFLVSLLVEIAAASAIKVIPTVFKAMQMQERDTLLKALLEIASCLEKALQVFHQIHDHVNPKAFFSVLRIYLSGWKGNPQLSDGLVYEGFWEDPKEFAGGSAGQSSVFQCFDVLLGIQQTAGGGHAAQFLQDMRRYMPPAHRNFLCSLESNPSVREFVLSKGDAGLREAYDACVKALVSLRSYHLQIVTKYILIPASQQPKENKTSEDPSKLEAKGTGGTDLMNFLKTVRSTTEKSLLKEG
Method: Assessment of Inhibitor Activity in HEK293 Cell-Based Indoleamine 2,3-Dioxygenase (IDO) Assay
HEK293 cells were transfected with a pCDNA-based mammalian expression vector harboring human IDO1 cDNA (NM 002164.2) by electroporation. They were cultured in medium (DMEM with 10% FBS) containing 1 mg/ml G418 for two weeks. Clones of HEK293 cells that stably expressed human IDO1 protein were selected and expanded for IDO inhibition assay.
The human IDO1/HEK293 cells were seeded at 10,000 cells per 50 μL per well with RPMI/phenol red free media contains 10% FBS in a 384-well black wall clear bottom tissue culture plate (Matrix Technologies LLC) 100 nL of certain concentration of compound was then added to each well using ECHO liquid handling systems. The cells were incubated for 20 hours in 37° C. incubator with 5% CO2.
The compound treatments were stopped by adding trichloroacetic acid (Sigma-Aldrich) to a final concentration at 0.2%. The cell plate was further incubated at 50° C. for 30 minute. The equal volume supernatant (20 μL) and 0.2% (w/v) Ehrlich reagent (4-dimethylaminobenzaldehyde, Sigma-Aldrich) in glacial acetic acid were mixed in a new clear bottom 384-well plate. This plate was then incubated at room temperature for 30 minute. The absorbance at 490 nm was measured on Envision plate reader.
Compound IC50 values were calculated using the counts of 500 nM of a reference standard treatment as one hundred percent inhibition, and counts of no compound but DMSO treatment as zero percent inhibition.

[1] = target: T2, indoleamine 2,3-dioxygenase (IDO) (Homo sapiens, UniProt P14902); experiment: HeLa cell-based indoleamine 2,3-dioxygenase (IDO) assay, kynurenine production; details: HeLa cells, IFNγ 25 ng/mL, 48 hour incubation
T2 construct: replaced with media containing IFNγ (#285-IF/CF, R&D Systems) at a final concentration of 25 ng/mL; endogenous in cells; host or cells: HeLa (ATCC CCL-2), IFN-gamma stimulated
T2 sequence (P14902 whole entry): as above

[2] = read-out: IDO Hela IC50 class (A < 50, B < 250, C < 2000)

| IC50 (human IDO1) [nM] | IC50 [1, 2] [nM] | IC50 ([1]; read-out: IDO Hela IC50) [nM] | Structure (SMILES) |
| --- | --- | --- | --- |
| 1 | < 50 | – | CCO[C@H](c1ccc([C@H](CC)CC(=O)O)cc1Nc1ccc(Cl)cc1)C(F)(F)F (single isomer, unassigned) [Example 11] |
| 2 | < 50 | – | CCO[C@@H](c1ccc(F)cc1)c1cc(Nc2ccc(Cl)cc2)cc([C@H](CC)CC(=O)O)c1 (single isomer, unassigned) [Example 112-1] |
| 7 | – | 30 | CCO[C@@H](c1ccc(F)cc1)c1cc(Nc2ccc(Cl)cc2)cc([C@@H](CC)CC(=O)O)c1 (single isomer, unassigned) [Example 112-2] |
| 20 | – | 20 | CCO[C@H](c1ccc(F)cc1)c1cc(Nc2ccc(Cl)cc2)cc([C@H](CC)CC(=O)O)c1 (single isomer, unassigned) [Example 113-1] |
| 23 | – | 20 | CCO[C@@H](c1ccc(F)cc1)c1cc(Nc2ccc3nc(C)sc3c2)cc([C@H](CC)CC(=O)O)c1 (single isomer, unassigned) [Example 114] |
| 1 | – | – | CCO[C@H](c1ccc([C@@H](CC)CC(=O)O)cc1Nc1ccc(Cl)cc1)C(F)(F)F (stereo in doubt) [Example 23, (S)-3-(3-((4-chlorophenyl)amino)-4-((R)-1-ethoxy-2,2,2-trifluoroethyl)phenyl)pentanoic acid] |
| 1 | < 50 | – | CCO[C@@H](c1ccc([C@H](CC)CC(=O)O)cc1Nc1ccc(Cl)cc1)C(F)(F)F (stereo in doubt) [Example 34, (R)-3-(3-((4-chlorophenyl)amino)-4-((S)-1-ethoxy-2,2,2-trifluoroethyl)phenyl)pentanoic acid] |
| 20 | – | – | Cc1ccc(NC(=O)Nc2cc(-c3ccccc3-c3nn[nH]n3)ccc2C(CC(C)C)CC(C)C)cc1 [Example 134, 1-(4-(2,6-dimethylheptan-4-yl)-2′-(2H-tetrazol-5-yl)-[1,1′-biphenyl]-3-yl)-3-(p-tolyl)urea] |
| 10 | – | 10 | CC(C)CC(CC(C)C)c1ccc(-c2ccccc2-c2nn[nH]n2)cc1NC(=O)Nc1ccc(Cl)cc1F [Example 135, 1-(4-Chloro-2-fluorophenyl)-3-(4-(2,6-dimethylheptan-4-yl)-2′-(2H-tetrazol-5-yl)-[1,1′-biphenyl]-3-yl)urea] |
| 19 | – | – | Cc1cc(NC(=O)Nc2cc(-c3ccccc3-c3nn[nH]n3)ccc2C(CC(C)C)CC(C)C)no1 [Example 136, 1-(4-(2,6-Dimethylheptan-4-yl)-2′-(2H-tetrazol-5-yl)-[1,1′-biphenyl]-3-yl)-3-(5-methylisoxazol-3-yl)urea] |
| 4 | < 50 | – | CC[C@@H](CC(=O)O)c1ccc(C(CC(C)C)CC(C)C)c(NC(=O)Nc2ccc(C)cc2)c1 [Example 137, (S)-3-(4-(2,6-Dimethylheptan-4-yl)-3-(3-(p-tolyl)ureido)phenyl)pentanoic Acid] |
| 464 | – | – | Cc1ccc(NC(=O)Nc2cc(OCC(=O)O)ccc2C(CC(C)C)CC(C)C)cc1 [Example 138, 2-(4-(2,6-Dimethylheptan-4-yl)-3-(3-(p-tolyl)ureido)phenoxy)acetic acid] |
